target: T1, acetylcholine muscarinic M1 receptor (Homo sapiens, UniProt P11229); assay: muscarinic FLIPR assay: potentiation of acetylcholine (EC20)-stimulated intracellular Ca2+ in CHOnfat/hM1 cells; format: cell-based; conditions: 4 min preincubation, then EC20 acetylcholine (3 nM final), read-out: IP Value (inflection point)
T1 construct: expressed in transfected cells; host or cells: CHOnfat (CHO cells; also called CHOK1/hM1)
T1 sequence (P11229 1-460): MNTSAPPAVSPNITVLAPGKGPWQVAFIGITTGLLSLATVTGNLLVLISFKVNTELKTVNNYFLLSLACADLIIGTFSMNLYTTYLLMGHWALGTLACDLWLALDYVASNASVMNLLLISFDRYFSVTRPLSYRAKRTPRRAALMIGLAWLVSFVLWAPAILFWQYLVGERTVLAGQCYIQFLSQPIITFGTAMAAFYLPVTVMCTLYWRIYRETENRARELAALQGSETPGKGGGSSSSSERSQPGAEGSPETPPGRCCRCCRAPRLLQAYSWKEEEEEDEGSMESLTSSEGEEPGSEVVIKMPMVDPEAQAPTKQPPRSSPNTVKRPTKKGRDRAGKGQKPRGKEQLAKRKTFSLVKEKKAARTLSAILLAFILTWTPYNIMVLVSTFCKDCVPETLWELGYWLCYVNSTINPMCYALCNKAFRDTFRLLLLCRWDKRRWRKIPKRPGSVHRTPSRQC
Experimental: The assay studies the effect of one or several concentrations of test compounds on basal or acetylcholine-stimulated Ca^2+ levels using FLIPR.
Compounds are prepared and subjected to a preincubation period of 4 min. Thereafter, a single EC20 concentration of acetylcholine is added to each well (3 nM final). The intracellular Ca^2+ level of each sample is measured and compared to an acetylcholine control to determine any modulatory activity
Cells: CHOnfat/hM1, hM2, hM3 or hM4 cells are plated 24 hr before the assay at a density of 18,000 cells/well (100 μL) in a 384 well plate. CHOnfat/hM1 and CHOnfat/hM3 Growth Medium: 90% DMEM (Hi Glucose); 10% HI FBS; 2 mM L-glutamine; 0.1 mM NEAA; Pen-Strep; and 1 mg/ml Geneticin, are added. For M2Gqi5CHOnfat and M4Gqi5CHOnfat cells, an additional 600 ug/ml hygromycin is added.
Equipment: 384 well plate, 120 μL addition plate; 96-well Whatman 2 ml Uniplate Incubator, 37° C., 5% CO2; Skatron EMBLA-384 Plate Washer; Multimek Pipetting System; Genesis Freedom 200 System; Mosquito System; Temo Nanolitre Pipetting System; and FLIPR^384 Fluorometric Imaging Plate Reader System are used.
Buffers. Assay Buffer: Hanks Balanced Salt Solution, with 20 mM Hepes, 2.5 mM Probenecid (Sigma P-8761) first dissolved in 1 N NaOH, 1% Bovine Serum Albumin (Sigma A-9647). Dye Loading Buffer: Assay Buffer plus 1% Fetal Bovine Serum and Fluo-4AM/Pluronic Acid Mixture. 2 mM Fluo-4AM ester stock in DMSO (Molecular Probes F-14202) Concentration of 2 μM in buffer for a final concentration of 1 μM in Assay. 20% Pluronic Acid Solution stock, with concentration of 0.04% in Buffer, 0.02% in Assay.
65 μL of 2 mM Fluo-4AM are mixed with 130 μL of 20% Pluronic Acid. The resulting solution and 650 μL FBS is added to the assay buffer for a total volume of 65 mL. Positive Controls; 4-Br-A23187: 10 mM in DMSO; final concentration 10 μM. Acetylcholine: 10 mM in water, working stock at both 20 μM and 30 μM in assay buffer, final concentration of 10 μM. This is used to check the maximum stimulation of the CHOK1/hM1 cells. 20 μM (2×) acetylcholine is added in the preincubation part of the assay, and the 30 μM (3×) stock is added in the second part. (EC20)Acetylcholine; 10 mM in water, working stock of 9 nM (3×), and final concentration in assay is 3 nM. This is used after the preincubation with test compounds. Addition of the EC20 Acetylcholine to each well with a test compound will ascertain any modulator activity. 24 wells contain 3 nM Acetylcholine alone as a control.
Screening Plate: Compounds are titrated in 96-well plates (columns 2-11), 100% DMSO, started at a concentration of 15 mM (150× stock concentration), and 3-fold serial dilutions using Genesis Freedom 200 System. Four 96-well plates are combined into a 384-well plate using Mosquito Nanolitre Pipetting System by transferring 1 μl of serial diluted compounds to each well, and 1 mM acetylcholine (100× stock concentration) were added as a control. Using Temo, 49 μl assay buffer is added to each well of the 384-well plate right before assay.
In a 96-well Whatman 2 ml Uniplate, 9 nM Acetylcholine (3×) is pipetted into wells corresponding to the screening compounds, and into control wells. The 30 μM acetylcholine control (3×) is added into control wells, and the 3× agonist plate is transferred into a 384 well plate.
Cells are washed three times with 100 μL of buffer, leaving 30 μL of buffer in each well. Using Multimek, 30 μL of Dye Loading Buffer is added into each well and incubated at 37° C., 5% CO2 for up to one hr.
After 60 min, the cells are washed three times with 100 μL of buffer, leaving 30 μL of buffer in each well. The cell plate, screening plate, and agonist addition plates are placed on the platform in the FLIPR and the door closed. A signal test to check background fluorescence and basal fluorescence signal is performed. Laser intensity is adjusted if necessary. […]

| EC50 | SMILES |
| --- | --- |
| 48 nM | Cc1ccccc1-n1nc2c3sccc3n(Cc3ccc(-n4cccn4)cc3)nc-2c1=O [Example 33, 2-(2-Methylphenyl)-5-{[4-(1H-pyrazol-1-yl)phenyl]methyl}-2,5-dihydro-3H-pyrazolo[4,3-c]thieno[2,3-e]pyridazin-3-one] |
| 438 nM | O=c1c2nn(Cc3ccc(-n4cccn4)cc3)c3ncccc3c-2nn1C1CCCOC1 (racemic) [Example 10, (±)-5-{[4-(1H-Pyrazol-1-yl)phenyl]methyl}-2-(tetrahydro-2H-pyran-3-yl)-2,5-dihydro-3H-pyrazolo[4,3-c]pyrido[3,2-e]pyridazin-3-one] |
| 109 nM | Cc1ccc(-c2ccc(Cn3nc4c(=O)n(-c5cccc(C)c5C)nc-4c4cccnc43)cn2)cn1 [Example 5, 2-(2,3-Dimethylphenyl)-5-[(6′-methyl-2,3′-bipyridin-5-yl)methyl]-2,5-dihydro-3H-pyrazolo[4,3-c]pyrido[3,2-e]pyridazin-3-one] |
| 370 nM | Cc1ccc(-c2ccc(Cn3nc4c(=O)n(C5CCCOC5)nc-4c4cccnc43)cc2)cn1 (racemic) [Example 11, (±)-5-{[4-(6-Methylpyridin-3-yl)phenyl]methyl}-2-(tetrahydro-2H-pyran-3-yl)-2,5-dihydro-3H-pyrazolo[4,3-c]pyrido[3,2-e]pyridazin-3-one] |
| 140 nM | Cc1ccc(-c2ccc(Cn3nc4c(=O)n([C@@H]5CCCC[C@H]5O)nc-4c4cccnc43)cn2)cn1 (racemic) [Example 8, (±)-2-(trans-2-Hydroxycyclohexyl)-5-[(6′-methyl-2,3′-bipyridin-5-yl)methyl]-2,5-dihydro-3H-pyrazolo[4,3-c]pyrido[3,2-e]pyridazin-3-one] |
| 36 nM | Cc1ccc(-c2ccc(Cn3nc4c(=O)n(-c5cccc(C)c5F)nc-4c4cccnc43)cn2)cn1 [Example 6, 2-(2-Fluoro-3-methylphenyl)-5-[(6′-methyl-2,3′-bipyridin-5-yl)methyl]-2,5-dihydro-3H-pyrazolo[4,3-c]pyrido[3,2-e]pyridazin-3-one] |
| 120 nM | Cc1cc(-c2ccc(Cn3nc4c(=O)n(C5CCCOC5)nc-4c4sccc43)cc2)ccn1 (racemic) [Example 39, (±)-5-{[4-(2-Methylpyridin-4-yl)phenyl]methyl}-2-(tetrahydro-2H-pyran-3-yl)-2,5-dihydro-3H-pyrazolo[4,3-c]thieno[2,3-e]pyridazin-3-one] |
| 96 nM | O=c1c2nn(Cc3ccc(-n4cccn4)cc3)c3ccsc3c-2nn1C1CCCOC1 (racemic) [Example 37, (±)-5-{[4-(1H-Pyrazol-1-yl)phenyl]methyl}-2-(tetrahydro-2H-pyran-3-yl)-2,5-dihydro-3H-pyrazolo[4,3-c]thieno[2,3-e]pyridazin-3-one] |
| 1690 nM | O=c1c2nn(Cc3ccc(-c4ccc(O)nc4)cc3)c3ncccc3c-2nn1C1CCCOC1 (racemic) [Example 32, (±)-5-{[4-(6-Hydroxypyridin-3-yl)phenyl]methyl}-2-(tetrahydro-2H-pyran-3-yl)-2,5-dihydro-3H-pyrazolo[4,3-c]pyrido[3,2-e]pyridazin-3-one] |
| 1160 nM | Cc1ccc(-c2ccc(Cn3nc4c(=O)n(C5CCCOC5)nc-4c4cccnc43)cn2)cn1 (racemic) [Example 9, (±)-5-[(6′-Methyl-2,3′-bipyridin-5-yl)methyl]-2-(tetrahydro-2H-pyran-3-yl)-2,5-dihydro-3H-pyrazolo[4,3-c]pyrido[3,2-e]pyridazin-3-one] |
| 578 nM | Cc1cncc(-c2ccc(Cn3nc4c(=O)n(C5CCCOC5)nc-4c4cccnc43)cc2)c1 (stereo not shown) [Example 13] |
| 295 nM | O=c1c2nn(Cc3ccc(-c4cscn4)cc3)c3ncccc3c-2nn1C1CCCOC1 (racemic) [Example 31, (±)-2-(Tetrahydro-2H-pyran-3-yl)-5-{[4-(1,3-thiazol-4-yl)phenyl]methyl}-2,5-dihydro-3H-pyrazolo[4,3-c]pyrido[3,2-e]pyridazin-3-one] |
| 33 nM | Cc1c(-n2nc3c4sccc4n(Cc4ccc(-n5cccn5)cc4)nc-3c2=O)ccnc1F [Example 34] |
| 183 nM | Cc1ccc(-c2ccc(Cn3nc4c(=O)n(C5CCCOC5)nc-4c4sccc43)cc2)cn1 (racemic) [Example 38, (±)-5-{[4-(6-Methylpyridin-3-yl)phenyl]methyl}-2-(tetrahydro-2H-pyran-3-yl)-2,5-dihydro-3H-pyrazolo[4,3-c]thieno[2,3-e]pyridazin-3-one] |
| 58 nM | Cc1cccc(-n2nc3c4cccnc4n(Cc4ccc(-c5cnn(C)c5)nc4)nc-3c2=O)c1C [Example 1, 2-(2,3-Dimethylphenyl)-5-{[6-(1-methyl-1H-pyrazol-4-yl)pyridin-3-yl]methyl}-2,5-dihydro-3H-pyrazolo[4,3-c]pyrido[3,2-e]pyridazin-3-one] |

| SMILES | EC50 |
| --- | --- |
| Cc1cccc(-n2nc3c4cccnc4n(Cc4ccc(Cl)nc4)nc-3c2=O)c1C [Example 4, 5-[(6-Chloropyridin-3-yl)methyl]-2-(2,3-dimethylphenyl)-2,5-dihydro-3H-pyrazolo[4,3-c]pyrido[3,2-e]pyridazin-3-one] | 366 nM |

Source: US8293744B2, “Heterocyclic fused cinnoline M1 receptor positive allosteric modulators” (Merck Sharp & Dohme Corp., priority 2009, dated 2012)
